From patent publication US6677357B2, “Rapamycin 29-enols” (Wyeth, priority 2001, dated 2004)
Values after ≈ are worked out from the molar mass of the structure shown.

Tests used:
Type in all cases: cell-based
3T3 (ovarian) = experiment: Antineoplastic activity, tumor cell growth inhibition (sulforhodamine B), 3T3; conditions: 48 hours; for Antineoplastic Activity (IC50): 3T3 cells; for IC50: Mus musculus, NIH3T3, 3T3 cells
Excerpt: (§1) Antineoplastic activity for the compounds of this invention was confirmed by evaluating the antineoplastic activity of representative compounds of this invention (Examples 1-5) against six tumor cell lines in vitro. Briefly, tumor cells from six cell lines were placed in wells of a 96 well microtiter plate. The following tumor cell lines were used: 3T3 (ovarian), 3T3/H2N (ovarian—resistant to cis-platin), A431 (vulva epidermoid origin), SW620 (colon), SKBR3 (breast), and MDA-435 (breast). The tumors cells were grown in the presence of serial dilutions of the compound to be evaluated for 48 hours, and cell growth determined using a calorimetric procedure (sulforhrodamine B). The inhibition of growth was calculated compared to the number of cells at the time of test compound addition.

[1] = tested on: 3T3/H2N (ovarian—resistant to cis-platin); experiment: Antineoplastic activity, tumor cell growth inhibition (sulforhodamine B), 3T3/H2N; conditions: 3T3/H2N cells, 48 hours
Excerpt: as §1

[2] = tested on: A431 (vulva epidermoid origin); experiment: Antineoplastic activity, tumor cell growth inhibition (sulforhodamine B), A431; conditions: 48 hours; for Antineoplastic Activity (IC50): A431 cells; for IC50: Homo sapiens, A-431, A431 cells
Excerpt: as §1

SKBR3 (breast) = experiment: Antineoplastic activity, tumor cell growth inhibition (sulforhodamine B), SKBR3; conditions: 48 hours; for Antineoplastic Activity (IC50): SKBR3 cells; for IC50: Homo sapiens, SK-BR-3, SKBR3 cells
Excerpt: as §1

MDA-435 (breast) = experiment: Antineoplastic activity, tumor cell growth inhibition (sulforhodamine B), MDA-435; conditions: MDA435 cells, 48 hours
Excerpt: as §1

SW620 (colon) = experiment: Antineoplastic activity, tumor cell growth inhibition (sulforhodamine B), SW620; conditions: 48 hours; for Antineoplastic Activity (IC50): SW620 cells; for IC50: Homo sapiens, SW-620, SW620 cells
Excerpt: as §1

SH-SY5Y cells = experiment: Neurite outgrowth (neuroregeneration) test procedure in SH-SY5Y cells; conditions: SH-SY5Y cells pretreated with aphidicolin 5 days, mean ± SEM
Excerpt: The neuroregeneration activity for the compounds of this invention was confirmed in a standard pharmacological test procedure by evaluating rapamycin dialdehyde (Example 1) and rapamycin 29-enol (Example 2), as representative compounds of this invention, against SH-SY5Y cells in vitro [Gold et al., Exp Neurol 147:269-278, 1997]. Briefly, SH-SY5Y cells were placed in 6-well plate treated with aphidicolin for 5 days followed by the test compounds using 6-well plates. For controls, wells were untreated, or treated with nerve growth factor (NGF) alone. Test wells were treated with NGF plus Example 1 and Example 2, or rapamycin. Cells were photographed at 168 hours. Analysis of neuritic lengths was performed on photographic prints using a Houston Instrument HI-PAD digitizing tablet connected to an IBM XT computer with appropriate software (Bioquant IV, R&M Biometrics, Nashville, Tenn.). Mean values for axonal areas were compared using by ANOVA (STATVIEW, Abacus Concepts, Inc., Berkeley, Calif.). The following table summarizes the results that were obtained.

Row | Molecule | Antineoplastic Activity (IC50) (3T3 (ovarian)) [µg/mL] | Antineoplastic Activity (IC50) [1] [µg/mL] | Antineoplastic Activity (IC50) [2] [µg/mL] | Antineoplastic Activity (IC50) (SKBR3 (breast)) [µg/mL] | Antineoplastic Activity (IC50) (MDA-435 (breast)) [µg/mL] | Antineoplastic Activity (IC50) (SW620 (colon)) [µg/mL] | Mean Neurite Length after 168 h (SH-SY5Y cells; test compound + NGF) | other results
1 | 42-O-(2-Hydroxy)ethyl rapamycin 29-enol [V] | >5 | 4.96 | >5 | 2.69 | >5 | >5 | – | –
2 | CO[C@H]1C[C@@H]2CC[C@@H](C)[C@@](O)(O2)C(=O)C(=O)N2CCCC[C@H]2C(=O)O[C@H]([C@H](C)C[C@@H]2CC[C@@H](O)[C@H](OC)C2)CC(=O)[C@H](C)/C=C(\C)[C@@H](O)[C@@H](OC)C(=O)[C@H](C)C[C@H](C)/C=C/C=C/C=C/1C [Rapamycin] | – | – | – | – | – | – | 261.4 ± 13.1 (n = 119) μm | –
3 | CO[C@@H]1[C@H](O)C2(C)OOC1([C@H](C)C[C@H](C)/C=C/C=O)O2 (stereo partly drawn) [III, (2E,4S,6R)-6-[(5S,6R)-5-Hydroxy-6-methoxy-4-methyl-2,3,7-trioxabicyclo[2.2.1]hept-1-yl]-4-methylhept-2-enal] | – | – | – | – | – | – | – | IC50 (3T3 (ovarian)): 4.11 µg/mL (≈ 14.4 µM); IC50 [1]: > 5 µg/mL; IC50 [2]: 3.01 µg/mL (≈ 10.5 µM); IC50 (SKBR3 (breast)): 2.05 µg/mL (≈ 7.16 µM); IC50 (MDA-435 (breast)): 4.13 µg/mL (≈ 14.4 µM); IC50 (SW620 (colon)): > 5 µg/mL
4 | CO[C@@H](C[C@@H]1CC[C@@H](C)[C@](O)(C(=O)C(=O)N2CCCC[C@H]2C(=O)O[C@@H](CC(=O)[C@H](C)/C=C(\C)[C@@H](O)[C@@H](OC)C(=O)[C@H](C)C[C@H](C)/C=C/C=O)[C@H](C)CC2CC[C@@H](O)[C@H](OC)C2)O1)/C(C)=C/C=O (stereo partly shown) [Example I, Rapamycin Dialdehyde] | – | – | – | – | – | – | 229.8 ± 9.5 (n = 141) μm | IC50 (3T3 (ovarian)): 0.72 µg/mL (≈ 0.761 µM); IC50 [1]: 0.68 µg/mL (≈ 0.719 µM); IC50 [2]: 0.91 µg/mL (≈ 0.962 µM); IC50 (SKBR3 (breast)): 0.52 µg/mL (≈ 0.55 µM); IC50 (MDA-435 (breast)): 1.23 µg/mL (≈ 1.3 µM); IC50 (SW620 (colon)): 1.41 µg/mL (≈ 1.49 µM)
5 | 42-O-(2-Hydroxy)ethyl rapamycin dialdehyde [IV] | 1.5 | 0.72 | 2.64 | 0.36 | 1.1 | 3.04 | – | –
6 | NGF: nerve growth factor (NGF), used alone as control and together with test compounds | – | – | – | – | – | – | – | Mean Neurite Length after 168 h (SH-SY5Y cells; NGF alone): 196.5 ± 7.7 (n = 112) μm
7 | Rapamycin 29-enol [Example II] | >5 | >5 | >5 | >5 | >5 | >5 | 239.7 ± 10.0 (n = 155) μm | –
